Reference: patent US8962621B2 (Shanghai Institute of Pharmaceutical Industry, priority 2010, dated 2015)

Legend:
male Kunming mice = assay: Mice forced swimming test; assay type: in vivo
How it was run: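 Mice pre-screened by 6-min swim in 25° C. water, 10 cm deep; those stopping at about 70-160 s used 24 h later. Samples given intragastrically at 10 mL·kg^−1, saline as blank, and 1 h later mice swum 6 min. Immobility over last 4 min recorded, t-test.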

5-HT reuptake = assay: 5-Hydroxytryptophan (DL-5-HTP) potentiation in mice (head twitches); assay type: in vivo; conditions: for Frequency of head twitches 0 (number of mice) / Frequency of head twitches I (number of mice) / Frequency of head twitches II (number of mice) / Frequency of head twitches III (number of mice): Pargyline 75 mg/kg s.c., DL-5-HTP i.v.
Text: (§1) Tests of the 5-hydroxytryptophan (DL-5-HTP) potentiation in mice, Yohimbine toxicity enhancement in mice and oxidation tremors can verify a compound's inhibition effect on 5-HT, NA and DA reuptake. Compound VI-2 is selected for the tests.
a) Principles • Taking DL-5-HTP as the precursor of 5-HT, the MAOs inhibitor Pargyline can inhibit the enzymatic degradation […]. While in mice, characteristic symptoms—head twitches can be observed.
b) Test Method • Three different dosages of VI-2 are used: 30, 15 and 7.5 mg/kg. The mouse is treated as follows: first, intraperitoneal injection of the compound, 0.2 mL/10 g; 30 min later, subcutaneous injection of Pargyline, 75 mg/kg; and 90 min later, intraveneous injection of DL-5-HTP. The induced head twitches of the mouse are observed 15 min later.

DA reuptake = assay: Oxidation tremor test (oxotremorine-induced tremors); assay type: in vivo, mice
Text: as §1
a) Principles • The pathogenesis of paralysis agitans is primarily related to the imbalance between DA function and Ach function. […] If the same function can be exerted in vivo, VI-2 will be able to partially antagonize the symptoms induced by an M receptor agonist.
b) Test Method • This test consists of 6 experimental groups: Model control group, VI-2-1 (300 mg/kg) group, VI-2-2 (200 mg/kg) group, VI-2-3 (120 mg/kg) group, VI-2-4 (60 mg/kg) group and VI-2-5 (30 mg/kg) group. For each VI-2 group, the compound at the corresponding dosage is administrated orally, or as in the case of the Model control group, N.S is given to the animals. One hour after the treatment, oxotremorine (0.5 mg/kg, 0.1 mL/10 g) is administrated by intraperitoneal injection to the mice in all groups. Responses of the mice are observed.

rats = assay: Learned helplessness experiment (conditioned avoidance test); assay type: in vivo; conditions: for Incubation period of escape / Number of times of successful avoidance: one week, test 24 h after last administration, n = 10
Text: (1) Principles • This is an animal model of depression. In this experiment, an animal is placed under conditions with aversive stimulus which it can't escape. […] This is a well recognized depression state, in which the level of catecholamine in the animal's brain is reduced. An antidepressant can act against this state. The learned helplessness model is sensitive to a variety of antidepressants used in a sub-long period (3-7 d), including tricyclic antidepressants, monoamine oxidase inhibitors, monoamine reuptake inhibitors and atypical antidepressants.
(2) Test Method • The animals are grouped. The pre-shock animals are generated the first day by performing inescapable electric shock. The pre-shock animals are given foot electric shock (0.8 mA, 15 s) for 60 times (1 min interval). Rats in the control group are only put into the cage for a same period of time but without any electric shock. • The administration of drugs starts the next day and lasts for one week. […] The conditioned avoidance test is conducted 24 h after the last administration to determine the number of times of successful avoidance and the incubation period of escape.

[1] = Acute toxicity experiment (single oral gavage); conditions: mouse, in vivo, po
[2] = test system: Histidine auxotroph mutant of mouse salmonella TA97, TA98, TA100 and TA102; assay type: cell-based
Text: 5. […] 6. Bacterial Reverse Mutation Test of Compounds VI-1 VI-2 and VI16 • Strains: Histidine auxotroph mutant of mouse salmonella TA97, TA98, TA100 and TA102. • Test method: The one reported in Maron DM et al: (1983) Mutay Res. 113, 173-216 is used. • Results: The test consists of two parts, i.e., −S9 and +S9. […] No bacteriostatic actions to all the strains are observed at all the other dosages, and the growth background is good.

NA Transporter (hNAT) = NA Transporter (hNAT) (Homo sapiens, UniProt P23975); assay: Inhibition of [3H]-NA reuptake in HEK 293 cells stably expressing hNAT; conditions: HEK293, read-out: NA Reuptake Inhibition
NA Transporter (hNAT), sequence (P23975 whole entry): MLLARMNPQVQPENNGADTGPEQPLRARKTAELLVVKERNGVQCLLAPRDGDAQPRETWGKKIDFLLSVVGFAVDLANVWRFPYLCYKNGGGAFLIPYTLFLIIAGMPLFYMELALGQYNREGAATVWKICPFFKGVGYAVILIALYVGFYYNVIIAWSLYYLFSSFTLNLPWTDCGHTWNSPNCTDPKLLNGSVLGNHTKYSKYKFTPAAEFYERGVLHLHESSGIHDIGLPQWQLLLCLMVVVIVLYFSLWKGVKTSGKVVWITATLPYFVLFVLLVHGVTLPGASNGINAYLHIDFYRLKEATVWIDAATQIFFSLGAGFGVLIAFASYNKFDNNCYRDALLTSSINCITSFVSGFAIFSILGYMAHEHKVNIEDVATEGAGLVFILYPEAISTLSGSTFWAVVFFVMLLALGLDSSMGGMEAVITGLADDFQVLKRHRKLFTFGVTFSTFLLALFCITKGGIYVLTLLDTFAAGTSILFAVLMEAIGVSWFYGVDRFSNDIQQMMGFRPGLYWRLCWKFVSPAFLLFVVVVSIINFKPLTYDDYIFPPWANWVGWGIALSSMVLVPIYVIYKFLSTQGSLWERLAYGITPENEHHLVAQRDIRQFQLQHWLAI

[3] = Venlafaxine 30 mg/kg, VI-2 at 3 doses (20, 10, 5 mg/kg)

Compound: CN(C)CCC(c1ccc(Cl)c(Cl)c1)N1CCCC1 (centres unmarked) [VI-2, N,N-dimethyl-3-(3,4-dichlorophenyl)-3-(pyrrolidin-1-yl)-propylamine]
- effect in the forced swimming test (in words) (male Kunming mice; 20 mg/kg): significant reduction in the immobility time
- IT (sec), immobility time (male Kunming mice; 20.0 mg/kg single intragastric administration, 1 h before test, last 4 min of 6 min, n=12): 74.9 ± 37.8 s
- Frequency of head twitches 0 (number of mice) (5-HT reuptake; 7.5 mg/kg intraperitoneal): 1
- Frequency of head twitches I (number of mice) (5-HT reuptake; 7.5 mg/kg intraperitoneal): 3
- Frequency of head twitches II (number of mice) (5-HT reuptake; 7.5 mg/kg intraperitoneal): 6
- Frequency of head twitches III (number of mice) (5-HT reuptake; 7.5 mg/kg intraperitoneal): 0
- Frequency of head twitches 0 (number of mice) (5-HT reuptake; 15 mg/kg intraperitoneal): 0
- Frequency of head twitches I (number of mice) (5-HT reuptake; 15 mg/kg intraperitoneal): 0
- Frequency of head twitches II (number of mice) (5-HT reuptake; 15 mg/kg intraperitoneal): 4
- Frequency of head twitches III (number of mice) (5-HT reuptake; 15 mg/kg intraperitoneal): 6
- Frequency of head twitches 0 (number of mice) (5-HT reuptake; 30 mg/kg intraperitoneal): 0
- Frequency of head twitches I (number of mice) (5-HT reuptake; 30 mg/kg intraperitoneal): 0
- Frequency of head twitches II (number of mice) (5-HT reuptake; 30 mg/kg intraperitoneal): 0
- Frequency of head twitches III (number of mice) (5-HT reuptake; 30 mg/kg intraperitoneal): 10
- enhancement of the effect of 5-HTP (in words) (5-HT reuptake; 30, 15 and 7.5 mg/kg, significant dose-effect relationship): significantly enhance the effect of 5-HTP
- anti-tremor effect (in words) (DA reuptake; 30 mg/kg oral, oxotremorine 0.5 mg/kg i.p. 1 h later): No anti-tremor effect is observed
- Side overturn (in words) (DA reuptake; 120 mg/kg or lower): rarely observed
- Side overturn (in words) (DA reuptake; 300 mg/kg and 200 mg/kg oral): Side overturn of different extent is observed
- Activity of the mice (in words) (DA reuptake; 300→200→120→60→30 mg/kg = Model): The best activity of the mice is observed in the 300 mg/kg group
- intensity of tremors versus dose (in words) (DA reuptake; Model→30→60→120→200→300 mg/kg from high to low): Clear dose-effect relationship is observed
- antagonism of the tremor symptom (in words) (DA reuptake; by enhancing the function of DA): can partially antagonize the tremor symptom
- doses giving improvement of tremor (in words) (DA reuptake; oral 30-300 mg/kg, oxotremorine 0.5 mg/kg i.p.): An improvement is only observed at doses up to 120 mg/kg
- enhancement of DA function at therapeutic doses (in words) (DA reuptake; therapeutic doses (10-20 mg/kg)): no such enhancement
- Incubation period of escape (rats; 5 mg/kg): 140.3 ± 195.44 s
- Number of times of successful avoidance (rats; 5 mg/kg): 21.2 ± 6.73
- Incubation period of escape (rats; 10 mg/kg): 188.3 ± 178.38 s
- Number of times of successful avoidance (rats; 10 mg/kg): 19.5 ± 8.83
- Incubation period of escape (rats; 20 mg/kg): 171.1 ± 159.69 s
- Number of times of successful avoidance (rats; 20 mg/kg): 18.9 ± 9.35
- incubation period of escape (in words) (rats; [3]): significantly shortened incubation period of escape
- times of successful avoidance (in words) (rats; [3]): relatively more times of successful avoidance
- LD50 [1]: 950 mg/kg
- bacteriostatic action ([2]; 5000 μg per dish, TA98 without S9 and TA97 with S9, none at other dosages): bacteriostatic action is showed
- Ames test result ([2]; TA97, TA98, TA100, TA102, with or without S9, all test dosages): negative
- inhibition at 10 µM (NA Transporter (hNAT)): 100%
